Test results as given in patent USRE38169E1, “Hyperstabilizing antisense nucleic acid binding agents” (priority 1993, dated 2003).

How the values were obtained:
[1] = test system: DNA sense (SEQ ID NO. 1) / DNA-MP antisense duplex (PO-MP); assay: Binding of drug to duplex (NACS column, A365/A260); parameters: species or system equine infectious anemia retrovirus; details: for Final D/N (CC-1065/nucleotide) Bound to Duplex: PO-MP
Experimental: (§1) Oligodeoxyribonucleotides were obtained by chemical synthesis through standard techniques on an automated synthesizer located in the Department of Veterinary Microbiology and Parasitology at Louisiana State University. Antisense MP and PS oligonucleotides were obtained from commercial sources, as was synthetic sense RNA. Poly(rA) was obtained from Sigma Chemical Co. CC-1065 was obtained from the Upjohn Company. Oligonucleotides (0.075 μmol-P each) were mixed in 0.36 ml 0.01 M Na cacodylate buffer, pH 7.2, with CC-1065 in dimethyl formamide (0.04 ml), or with dimethylformamide only. (Note that “μmol-P” denotes μmoles of phosphate; i.e., μmoles of nucleotide bases, rather than of oligonucleotides per se.) Incubations of complementary strands, with or without drug, were carried out at 37° C. for 4 hr. In the initial experiments, unbound drug was separated from nucleotide duplexes by ethanol precipitation. Equivalent results were obtained by trapping the oligonucleotides and CC-1065 on NACS-52 columns, and washing first with low-salt buffer and then with buffer containing 1M NaCl. Unbound CC-1065 was completely retained on the column. […] Samples prepared in this manner could be directly used for determination of binding of the drug to the nucleic acid (as measured by the A365/A260 ratio), with the extinction of CC-1065 absorbance at 365 nm taken as 48,000, and the extinction of the nucleic acid absorption at 260 nm based on its composition. Similar approaches were used with the drug U-71,184, with an assumed extinction of 32,000 at 365 nm.
(§2) When methyl phosphonate and synthetic RNA were used, the purities of the crude oligonucleotides were taken to be about 30%, based on the data sheet prepared by the supplier. (The remainder comprised primarily truncated sequences.) Appropriate excess amounts of these agents were included in the reactions to ensure helix formation. The corresponding sense or antisense oligonucleotides were maintained at 0.075 μmol-P in the reaction. […] Unpurified materials were used in these preliminary studies because of the relatively high cost of purified oligoribonucleotides. The majority of the contributions to A260 for these samples should be due to material that was not duplexed.
(§3) Table 1 summarizes binding data obtained from incubations of CC-1065 with nucleotides at greater than stoichiometric levels; the levels used in these experiments were 1 drug molecule/10 nucleotide residues, which is equivalent to 4 drug molecules/20-mer duplex. […] There seemed to be no difference in drug binding between antisense oligonucleotides with a PO and those with a PS backbone. Again, the 5′-AGTTA-3′ sequence on the sense strand was presumably the primary target, and the 3′-AAGTA-5′ on the antisense probe was presumably the secondary target.

[2] = test system: DNA sense (SEQ ID NO. 1) / DNA-PO antisense (SEQ ID NO. 2) duplex (PO-PO); assay: Binding of drug to duplex (NACS column, A365/A260); parameters: species or system equine infectious anemia retrovirus; details: for Final D/N (CC-1065/nucleotide) Bound to Duplex: PO-PO
Experimental: as §1, §2, §3

[3] = test system: RNA sense / DNA-PO antisense duplex; assay: Binding of drug to duplex (NACS column); parameters: species or system equine infectious anemia retrovirus; details: saturation; initial CC-1065/nucleotide 0.1; 37° C., 4 hr
Experimental: (§4) Oligodeoxyribonucleotides were obtained by chemical synthesis through standard techniques on an automated synthesizer located in the Department of Veterinary Microbiology and Parasitology at Louisiana State University. Antisense MP and PS oligonucleotides were obtained from commercial sources, as was synthetic sense RNA. Poly(rA) was obtained from Sigma Chemical Co. CC-1065 was obtained from the Upjohn Company. Oligonucleotides (0.075 μmol-P each) were mixed in 0.36 ml 0.01 M Na cacodylate buffer, pH 7.2, with CC-1065 in dimethyl formamide (0.04 ml), or with dimethylformamide only. (Note that “μmol-P” denotes μmoles of phosphate; i.e., μmoles of nucleotide bases, rather than of oligonucleotides per se.) Incubations of complementary strands, with or without drug, were carried out at 37° C. for 4 hr. In the initial experiments, unbound drug was separated from nucleotide duplexes by ethanol precipitation. Equivalent results were obtained by trapping the oligonucleotides and CC-1065 on NACS-52 columns, and washing first with low-salt buffer and then with buffer containing 1M NaCl. […] Samples prepared in this manner could be directly used for determination of binding of the drug to the nucleic acid (as measured by the A365/A260 ratio), with the extinction of CC-1065 absorbance at 365 nm taken as 48,000, and the extinction of the nucleic acid absorption at 260 nm based on its composition. […]

[4] = test system: RNA sense / DNA-PS antisense duplex; assay: Binding of drug to duplex (NACS column); parameters: species or system equine infectious anemia retrovirus; details: saturation; initial CC-1065/nucleotide 0.1; 37° C., 4 hr
Experimental: as §4

[5] = test system: single-stranded materials; assay: Binding of drug to single strands; details: under the conditions used
From the text: as §2

Oligo dA - Oligo dT = assay: Duplex strand separation temperature (Tm); format: binding
Experimental: (§5) Samples for determining Tm were also obtained by the above procedures. […] Thus the effects of this agent on Tm were carried out with Distamycin in solution with the duplexes tested.
(§6) Tm's were determined on a Gilford 2400 Spectrophotometer set at 260 nm, with a 4-chamber Peltier-based temperature controller. Temperature was ramped linearly at 0.5° C./min. Absorbance data were acquired with a 12-bit A/D converter, and data were processed with Lotus 123W and SigmaPlot software. Tm values were determined from the plots as the midpoint of the thermal transitions.

Poly rA - Oligo dT (PO) = assay: Duplex strand separation temperature (Tm); format: binding
Experimental: as §5, §6

poly(dA)-poly(dT) = details: reported, cited from earlier work
[6] = CC-1065 initial D/N = 0.025, regions lacking CC-1065
[7] = CC-1065 initial D/N = 0.025, regions with CC-1065
[8] = CC-1065 initial D/N = 0.1, minimum Tm estimate

In the case of `COc1c(O)c2c(c3cc(C(=O)N4CCc5c4c(O)c(OC)c4[nH]c(C(=O)N6CC7CC78C6=CC(=O)c6[nH]cc(C)c68)cc54)[nH]c13)CCN2C(N)=O` (stereo not shown) [CC-1065], the “Estimate of drug bound per duplex by titration with a range of MP” value ([1]; MP antisense oligonucleotides) is reported as “# With MP antisense oligonucleotides, titration with a range of MP gave an estimate of 1 molecule bound per duplex. Precipitation with NaCl and EtOH gave similar results, but recoveries were lower. Single-strand components did not bind CC-1065”, the “Binding for MP antisense sequences” value ([1]; MP antisense sequences) is reported as “about 1 drug molecule/duplex” and the “Final D/N (CC-1065/nucleotide) Bound to Duplex” value ([1]; Initial D/N 0.025) is reported as 0.016 ± 0.0008. The “Final D/N (CC-1065/nucleotide) Bound to Duplex” value ([1]; Initial D/N 0.04, single determination) was 0.019^4, the “Final D/N (CC-1065/nucleotide) Bound to Duplex” value ([1]; Initial D/N 0.10) was 0.031 ± 0.001 and the “Approx. No. CC-1065 Bound/20 Base Pairs” value ([1]; saturation, initial CC-1065/nucleotide 0.1, 37° C., 4 hr) was ~1. For the same molecule, the “Final D/N (CC-1065/nucleotide) Bound to Duplex” value ([2]; Initial D/N 0.01) was 0.009 ± 0.0004, the “Final D/N (CC-1065/nucleotide) Bound to Duplex” value ([2]; Initial D/N 0.025) was 0.021 ± 0.001 and the “Final D/N (CC-1065/nucleotide) Bound to Duplex” value ([2]; Initial D/N 0.04) was 0.030 ± 0.0004. The “Final D/N (CC-1065/nucleotide) Bound to Duplex” value ([2]; Initial D/N 0.065) was 0.049 ± 0.001, the “Final D/N (CC-1065/nucleotide) Bound to Duplex” value ([2]; Initial D/N 0.10) was 0.053 ± 0.002 and the “Approx. No. CC-1065 Bound/20 Base Pairs” value ([2]; saturation, initial CC-1065/nucleotide 0.1 (4 drug molecules per duplex), 37° C., 4 hr) was ~2. The “Approx. No. CC-1065 Bound/20 Base Pairs” value [3] was ~1, the “Approx. No. CC-1065 Bound/20 Base Pairs” value [4] was ~1 and the “Binding to single-stranded materials” value [5] was “found not to bind to single-stranded materials”. The “Tm, lower transition of biphasic curve” value (Oligo dA - Oligo dT; [6]) was 50 °C, the “Tm, higher transition of biphasic curve” value (Oligo dA - Oligo dT; [7]) was 85 °C and the Tm (Oligo dA - Oligo dT; [8]) was ≥ 85.5 ± 0.7^4,5 °C. For the same molecule, the “Duplex Strand Separation Temperature” value (Oligo dA - Oligo dT; Oligo dA / Oligo dT, drug-bound duplex (Table 6)) was ≥ 85.5 ± 0.7^4, the “Tm Elevation” value (Oligo dA - Oligo dT; dA-dT, highest level of binding obtained) was 28.5 °C and the “Tm, lower transition of biphasic curve” value (Poly rA - Oligo dT (PO); [6]) was 51 °C. The “Tm, higher transition of biphasic curve” value (Poly rA - Oligo dT (PO); [7]) was 76 °C, the Tm (Poly rA - Oligo dT (PO); [8]) was ≥ 81.3 ± 0.6^4,5 °C and the “Duplex Strand Separation Temperature” value (Poly rA - Oligo dT (PO); Poly rA / Oligo dT (PO), drug-bound duplex (Table 6)) was ≥ 81.3 ± 0.6^4. The “Stabilization of duplexes” value (Poly rA - Oligo dT (PO); poly(rA)-oligo(dT)) was “strong stabilization”, the “Tm Elevation” value (Poly rA - Oligo dT (PO); rA-dT, highest level of binding obtained) was 28.3 °C and the Tm (poly(dA)-poly(dT); CC-1065 bound) was ~100 °C. For the same molecule, the “Increase in Tm” value (poly(dA)-poly(dT); under the conditions of the experiment) was “over 30 °C”.
